Legend:
Aβ 1-42 = molecular target: T1, Aβ 1-42 (Homo sapiens, UniProt P05067); assay: Fluorometric H2O2 assay (inhibition of Abeta H2O2 production); format: biochemical; settings: concentration required to inhibit 50% of Abeta H2O2 production; read-out: H2O2 IC50
T1 construct: The reaction solutions contained Aβ 1-42 at concentrations
Protocol: Assay 1. Fluorometric H2O2 Assay
A fluorometric assay was used to test the ability of a test compound to inhibit hydrogen peroxide generation by Aβ in the presence of copper based on dichlorofluoroscein diacetate (DCF; Molecular Probes, Eugene Oreg.). The DCF solution (5 mM) in 100% dimethyl sulphoxide (previously purged with argon for 2 hr at 20° C.) was deacetylated in the presence of 0.25M NaOH for 30 min and neutralized at pH 7.4 to a final concentration of 1 mM. Horseradish peroxidase (HRP) stock solution was prepared to 1 μM at pH 7.4. The reactions were carried out in PBS, pH 7.4 in a 96 well plate (total volume=250 μl/well). […] The reaction mixture was incubated at 37 C for 60 min. […] H2O2 concentration may be established by comparing fluorescence with the H2O2 standards, Inhibition of Aβ H2O2 production was assayed by including a given concentration of test compound(s) in the test wells.

[1] = system: primary cortical neuronal cultured cells; assay: Test compound cytotoxicity, MTS assay, primary cortical neuronal cultures; format: cell-based, mouse; settings: for Cytotox (% viable) Neuronal cells at 1 μM: 1 μM test compound; for Cytotox (% viable) Neuronal cells at 10 μM: 10 μM test compound
Protocol: Assay 2. Neurotoxicity Assays
Primary Cortical Neuronal Cultures
Media was then replaced with Neurobasal media (Invitrogen Life Technologies) and B27 supplements (Invitrogen Life Technologies). Cultures were maintained at 37° C. in 5% CO2. Prior to experimentation, the culture medium was replaced with Neurobasal media and B27 minus antioxidants (Invitrogen Life Technologies).
Assay 3. MTS Assay for Cell Viability
Cell viability is determined using the MTS assay. Culture medium is replaced with fresh neurobasal medium plus B27 supplements minus antioxidants. 1/10th volume MTS solution (Cell Titre 96 Aqueous One, Promega Corporation) and incubated at 37° C., 2 hrs. 200 microliter aliquots are measured with a spectrophotometer at 560 nm.
Assay 4. Assay for Test Compound Cytoxicity
Neuronal cortical cells were cultured for five days as per Assay 2 in NB media and B27 supplement.
On day six the test compounds were added to the neuronal cell cultures in NB media and B27 supplement minus antioxidants.
Test compounds were dissolved in 100% DMSO to a concentration of 2.5 mM (10 mM if excess compound was weighed out per vial—then diluted to 2.5 mM).
Test compounds were not added directly to cells, instead they were added to a 48 well ‘Drug Plate’ as comprised below:
The Drug Plate was incubated at 37° C. for 15 mins. 200 μl of each well was added in triplicate to the corresponding cell plate. The cell plate was incubated at 37 C, for 4 days.
On completion of the assay, 1/10 volume MTS was added per well of plate (ie 25 μl/250 μl). The plates were incubated at 37 C for 2 hrs, and then absorbance was read at 560 nm.

[2] = system: Abeta in extract of post-mortem human AD brain tissue; assay: BAS: human brain amyloid solubilization assay; format: biochemical; settings: for BAS max effect: max effect across the concentration range, referenced to baseline PBS; for BAS concentration or concentration range at which an effect is observed: units printed in each cell
Protocol: Assay 5. Human Brain Amyloid Solubilization Assay
This assay was performed in order to assess the ability of a test compound to mobilise Aβ, as an example form of amyloid, from the insoluble to the soluble phase of an extract of tissue from post mortem human AD brain.
Up to 0.5 g of plaque-bearing cortex without meninges was homogenized using a DIAX 900 homogenizer (Hendolph and Co, Kelheim, Germany) or other suitable device for three 30-second periods at full speed in 2 ml of ice-cold phosphate-buffered saline, pH 7.4. To obtain the phosphate-buffered saline-extractable fraction, the homogenate was centrifuged at 100,000×g for 30 min and the supernatant removed. Alternatively, the tissue was freeze dried then pulverized to form a powder which was then weighed out into aliquots for extraction as above. Supernatant, either freeze-dried and resuspended or in unconcentrated form, was dissolved in 200 μl of Tris-Tricine sodium dodecyl sulfate (SDS) sample buffer pH 8.3 containing 8% SDS, 10% 2-mercaptoethanol. Aliquots (10 μl) were then boiled for 10 minutes before SDS-polyacrylamide gel electrophoresis. The insoluble fraction of the cortical samples was obtained by resuspending the initial pelleted sample in 1 ml of phosphate-buffered saline, A 50-μl aliquot of this suspension was then boiled in […] of sample buffer as above.
Tris-Tricine polyacrylamide gel electrophoresis was performed by loading appropriately diluted samples on to 10% to 20% gradient gels (Novex, San Diego, Calif.) followed by transfer on to 0.2-μm nitrocellulose membrane (Bio-Rad, Hercules, Calif.). Aβ was detected by using monoclonal antibody W02, which detects residues 5 through 8, […] (or another suitable antibody) in conjunction with horseradish peroxidase-conjugated rabbit anti-mouse IgG (Dako, Denmark), and visualized by using enhanced chemiluminescence (eg ECL; Amersham Life Science, Buckinghamshire, UK). Each gel included three lanes containing 0.5, 1, and 2 ng of synthetic Aβ40 (Keck Laboratory, Yale University, New Haven, Conn.) as reference standards.
Blot films were scanned by using a suitable imaging system such as the UVP gel documentation system, and densitometry performed using suitable software, eg UVP Labworks. The dynamic range of the film/scanner was determined by using a step tablet (No. 911ST600, Kodak, Rochester N.Y.), a calibrated film exposed by the manufacturer to provided steps of known increasing intensity. The quantifiable range of signal intensity for densitometric analysis of the mono- and dimeric Aβ bands was based on the comparison with a curve obtained by scanning and densitometry of the step tablet.
All samples were analyzed at least twice, and gel loadings and dilutions were adjusted to fit within the quantifiable region of the standard curve. The proportion of ‘soluble’ to ‘insoluble’ Aβ may be used to determine the efficiency of extraction of a test compound compared with the efficiency of a known compound. The insoluble Aβ being comprised of the pelletable fraction derived from the insoluble amyloid plaque from the above cortical samples and the soluble fraction comprising monomeric and/or oligomeric soluble Aβ.

T1 sequence (P05067 672-713 limits assumed): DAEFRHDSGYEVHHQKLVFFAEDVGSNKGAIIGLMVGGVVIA

SMILES | IC50 (Aβ 1-42) | Cytotox (% viable) Neuronal cells at 1 μM [1] | Cytotox (% viable) Neuronal cells at 10 μM [1] | BAS max effect [2] | BAS concentration or concentration range at which an effect is observed [2]
Cc1cc(C)c2cccnc2c1O [PB 59] | 700 nM | 86% | 85% | 293% | 
CN(c1ccc2cccc(O)c2n1)c1ccc2cccc(O)c2n1 [PB 56] | 250 nM | 80% | 25% | 311% | 
Oc1c(-c2ccccc2C(F)(F)F)cc(Cl)c2cccnc12 [PB 864] | 770 nM | 96% | 93% | 208% | 
O=C(Nc1nccs1)c1ccc2cccc(O)c2n1 [PB 952] | 270 nM | Neuronal cells: 100, 100% | Neuronal cells: 100, 100% | 268% | 
Oc1c(Br)cc(-c2ccccc2)c2cccnc12 [PB 806] | < 900 nM | 100% | 97% | 311% | 
CN(CCc1ccccn1)Cc1ccc2cccc(O)c2n1 [PB 990] | 400 nM | 97% | 57% | 183% | 
Oc1ccc(/C=C/c2ccc3cccc(O)c3n2)cc1 [PB 89] | 2500 nM | 100% | 75% | 233% | 
O/N=C/c1ccc2cccc(O)c2n1 [PB 969] | 540 nM | 100% | 95% | 385% | 
O=C(CNC(=O)c1cc(O)c2cccc(O)c2n1)NCCc1c[nH]cn1 [PB 987] | 1800 nM | 98% | 89% | 393% | 
Cc1cnc(NC(=O)c2ccc3cccc(O)c3n2)s1 [PB 953] | < 420 nM | 94% | 68% | 325% | 
Oc1cccc2ccc(CNCc3ccccn3)nc12 [PB 991] | 470 nM | 96% | 67% | 222% | 
COc1cc(NS(=O)(=O)c2ccc(C)cc2)c2ncccc2c1 [PB 116] | 500 nM | 81% | 60% | 220% | 
Cc1cccc(-c2cc(Cl)c3cccnc3c2O)c1 [PB 859] | < 670 nM | 98% | 73% | 266% | 
COc1ccccc1-c1cc(I)c(O)c2ncccc12 [PB 863] | < 730 nM | 91% | 35% | 386% | 
O=C(CNC(=O)c1cc(O)c2cccc(O)c2n1)NCc1ccccn1 [PB 988] | > 10000 nM | Neuronal cells: 93, 93% | Neuronal cells: 93, 93% | 137% | 
O=C(NCc1ccccn1)c1ccc2cccc(O)c2n1 [PB 949] | 430 nM | 96% | 85% | 201% | 
Cc1ccccc1-c1cc(Cl)c2cccnc2c1O [PB 854] | 780 nM | Neuronal cells: 100, 100% | Neuronal cells: 100, 100% | 520% | 
COc1ccccc1-c1cc(-c2ccccc2OC)c2cccnc2c1O [PB 862] | < 770 nM | 100% | 52% | 256% | 
Oc1c(Br)cc(-c2cc(F)cc(F)c2)c2cccnc12 [PB 853] | 770 nM | Neuronal cells: 95, 95% | Neuronal cells: 95, 95% | 221% | 
Cl.Nc1ccc(O)c2ncccc12 [PB 44] | > 10000 nM | 108% | 71% | 191% | 
COc1cccc(-c2cc(Cl)c3cccnc3c2O)c1 [PB 810] | < 700 nM | 83% | 71% | 184% | 
Oc1c(I)cc(-c2ccccc2C(F)(F)F)c2cccnc12 [PB 860] | 790 nM | 91% | 90% | 160% | 
O=C(NCCc1cnc[nH]1)c1ccc2cccc(O)c2n1 [PB 948] | 150 nM | 100, 100% | 100, 100% | 576% | 
O=C(NCCc1cnc[nH]1)c1cc(O)c2cccc(O)c2n1 [PB 954] | 120 nM | Neuronal cells: 100, 100% | Neuronal cells: 100, 100% | 134% | 1 µM
Cc1ccc(-c2ccc(C)cn2)nc1 [PB 896] | 150 nM |  | Neuronal cells: 86% (at 10 uM) | 358% | 
Oc1ccccc1-c1cc(Cl)c2cccnc2c1O [PB 947] | 1140 nM | 100% | 70% | 244% | 
NCCNC(=O)c1ccc2cccc(O)c2n1 [PB 957] | > 10000 nM | 106% | 96% | 190% | 1 μM, 100 μM
CN1CCCN(C)CCN(C)CCCN(C)CC1 [PB 933] | 110 nM |  | Neuronal cells: 127% (at 10 μM) | 279% | 
Cc1ccccc1-c1cc(-c2ccccc2C)c2cccnc2c1O [PB 852] | 2100 nM | 93% | 34% | 220% | 

Source: patent US9163018B2, “Method of treatment of age-related macular degeneration (AMD)” (Prana Biotechnology Limited, priority 2006, dated 2015)
